Patent US8470772B2, “Leptin agonist and methods of use” (Temple University—Of The Commonwealth System of Higher …, priority 2008, dated 2013)
Starred links: 1 amine or outer side, 2 acyl side, 3 side chain; linkers in the order of their positions; H or OH if unused. Non-standard residues stand in square brackets, D forms with d. No end group written: not given here. *: point of attachment. βGlcAc4 = CC(=O)OC[C@H]1O[C@@H](*)[C@H](OC(C)=O)[C@@H](OC(C)=O)[C@@H]1OC(C)=O; Tyr(Me) = O-methyl Tyr, COc1ccc(C[C@H](N[*:1])C(=O)[*:2])cc1; Tyr(3,5-I2) = N[C@@H](Cc1cc(I)c(O)c(I)c1)C(=O)O; dGla = N[C@H](CC(C(=O)O)C(=O)O)C(=O)O; Dap = NC[C@H](N)C(=O)O; βAla = NCCC(=O)O

How the values were obtained:
MCF-7 cells = test: MCF-7 cell stimulation (cell growth) assay, cell counts by trypan blue exclusion; format: cell-based, human; details: for reversal of leptin-induced cell stimulation: leptin present; for antagonistic activity on leptin-induced MCF-7 cell proliferation: in the presence of exogenous leptin; for agonistic activity on MCF-7 cells: without leptin; for Relative stimulation (%) of MCF-7 cells, No leptin added: no exogenous leptin; for MCF-7 cell count increase: no leptin
Description: (§1) For the evaluation of the biological activity of the synthesized leptin Site III peptide fragments, human cell lines were selected in which the ObR expression level is known. Two ObR-positive human cell models were used: MCF-7 breast cancer cells and DU-45 prostate cancer cells. Both cell lines express ObR, and leptin and leptin analogues stimulate their growth (C. Garofalo, et al., Clin. Cancer Res., 2004, 10, 6466-6475; C. Garofalo, et al., Clin. Cancer Res., 2006, 12, 1447-1453). Normal mammary epithelial MCF-10 cells lacking ObR were used as a negative control (X. Hu, et al., J. Natl. Cancer Inst., 2002, 94, 1704-1711).
Biological activity of the Site III peptides was assayed as follows. MCF-7 cells were stimulated with 6 nM full-sized leptin. The smaller leptin fragments and analogs were added to the cell culture at a concentration of 10 nM, 100 nM or 1 μM. Leptin at […] concentration stimulated MCF-7 cell growth by approximately 40%, in line with previous observations (C. Garofalo, et al., Clin. Cancer Res., 2004, 10, 6466-6475). All Site III peptides bound to the extracellular domain of ObR as documented by dot-blot or Western-blot analysis. […] In fact, it reversed leptin induced stimulation of MCF-7 cells at as low as 10 nM peptide concentration, with an additional 50% reduction in cell counts at 1 μM. When the assay was run at a more reliably measurable 1 μM peptide concentration, a consistent 6% decrease in cell numbers could be observed compared to the leptin only samples. In summary, in the presence of exogenously added full-sized leptin these assays verified the strong antagonist activity of the Site III Ala,Ala mutant.
(§2) The cell stimulation activity of the Site III peptides was assayed as follows. Human leptin was purchased from R&D Systems and used at a concentration of 100 ng/mL (approximately 6 nM). MCF-7 and DU-45 cells naturally expressing ObR were grown in a standard medium DMEM:F12 plus 5% fetal bovine serum. MCF-10 was grown in serum-free mammalian epithelial growth medium supplemented with 100 ng/mL cholera toxin. Seventy percent confluent cultures were synchronized in serum-free medium (DMEM plus 10 μM FeSO4, plus 0.5% albumin) for 24 h and then treated with leptin and/or peptides (different doses) for 5 days. Cell counts before and after treatment were determined by counting the cells using trypan blue exclusion. All assays were conducted in triplicate and repeated at least twice.

[1] = tested on: astrocytes, brain capillary endothelial cells; test: In vitro model of blood-brain-barrier penetration (Transwell cell layers); format: in vitro ADME, human; details: 0.1 mM peptide in upper compartment
Description: To confirm the ability of the E1 peptides to cross the blood-brain barrier, penetration of the protected (E1Ac) and free (E1Free) glycopeptides across confluent layers of astrocytes, brain endothelial cells, or a double layer of these two cell types was examined, in comparison with the Site III Ala,Ala non-glycosylated analog.
A confluent monolayer of human astrocytes or brain capillary endothelial cells, or a dual layer of both cell types (astrocytes first, followed by endothelial cells) were grown at 37° C. on polycarbonate filters (Costar, Transwell, 0.4 μm) that were pretreated with collagen. Under these conditions, the endothelial cells retain the characteristics of the blood-brain-barrier, which include complex tight junctions, low rates of pinocytosis and low enzyme levels (S. Lundquist, et al., Pharm. Res., 2002, 19, 976-981). A 0.1 mM solution of each of E1Ac, E1Free or Site III Ala,Ala was added to the upper compartment of the Transwell plates. The plates were then placed back in the incubator and samples were taken from the bottom compartments at 0, 5, 10, 30, and 120 minute intervals. The identity and quantity of peptides that had penetrated through the cell layers were subsequently analyzed by RP-HPLC and MALDI-MS.

DU-45 cells = test: DU-45 cell stimulation (proliferation) assay; format: cell-based, human
Description: as §1
as §2, with “All assays were conducted in triplicate and repeated at least twice.” left out

MCF-10 cells = test: MCF-10 control cell proliferation assay (cells lacking ObR); format: cell-based, human; details: for effect on the proliferation of MCF-10 cells: control cell line lacking ObR
Description: as §1, §2

ObR extracellular domain = biological target: T1, ObR extracellular domain (Homo sapiens, UniProt P48357); test: Dot-blot and ELISA-type solid-phase binding assay; details: dot-blot, Western-blot or ELISA; 10 and 20 μg peptide load in ELISA
T1 construct: human IgG Fc-conjugated ObR extracellular domain (R&D Systems); purchased R&D Systems
T1 sequence (P48357 22-839 limits assumed): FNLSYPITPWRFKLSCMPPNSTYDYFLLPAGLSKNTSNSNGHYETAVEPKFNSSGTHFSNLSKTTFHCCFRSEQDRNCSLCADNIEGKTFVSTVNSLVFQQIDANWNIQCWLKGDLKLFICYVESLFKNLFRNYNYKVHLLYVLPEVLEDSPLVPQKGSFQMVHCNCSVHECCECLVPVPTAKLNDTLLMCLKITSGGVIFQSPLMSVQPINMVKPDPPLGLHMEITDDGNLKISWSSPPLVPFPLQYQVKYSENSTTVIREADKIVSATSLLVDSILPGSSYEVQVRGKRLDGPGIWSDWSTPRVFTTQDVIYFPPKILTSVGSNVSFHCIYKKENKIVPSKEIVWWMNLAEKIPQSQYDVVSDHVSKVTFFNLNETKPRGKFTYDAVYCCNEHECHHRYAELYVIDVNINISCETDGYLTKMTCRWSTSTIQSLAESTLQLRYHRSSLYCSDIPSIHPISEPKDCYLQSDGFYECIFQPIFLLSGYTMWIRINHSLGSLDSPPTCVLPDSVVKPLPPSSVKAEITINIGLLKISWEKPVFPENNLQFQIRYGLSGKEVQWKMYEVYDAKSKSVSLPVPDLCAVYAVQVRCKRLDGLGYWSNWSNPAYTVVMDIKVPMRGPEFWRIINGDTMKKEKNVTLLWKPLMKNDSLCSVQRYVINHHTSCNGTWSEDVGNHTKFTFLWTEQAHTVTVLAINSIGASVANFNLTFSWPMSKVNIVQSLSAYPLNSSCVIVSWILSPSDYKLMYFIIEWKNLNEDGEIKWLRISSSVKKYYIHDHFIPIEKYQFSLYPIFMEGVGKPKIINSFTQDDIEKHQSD
Description: For dot-blot and ELISA assays, the leptin fragments were dissolved in electroblot transfer buffer (25 mM Tris and […] buffer containing 20% methanol) and were applied to either a nitrocellulose membrane or dried upon ELISA plates (Otvos, L., Jr., and Szendrei, G. I. (1996) Enzyme-linked immunosorbent assay of peptides. In: Neuropeptide Protocols (G. B. Irvine and C. H. Williams, eds.). Humana Press, Totowa, N.J., pp. 269-275). The solid surfaces were blocked with 5% BSA in a PBS-0.5% Tween 20 buffer (PBST) for 3 hours at room temperature and were subsequently incubated with 10 μg/mL solution of human IgG Fc-conjugated ObR extracellular domain (R&D Systems) dissolved in Tris-buffered saline-0.1% Tween 20 buffer (TBST) containing 1% bovine serum albumin (BSA) for 1 hour. A monoclonal goat antibody (Santa Cruz Biotechnology), specific for the N-terminus of human ObR, was added to the assay mixture, followed by addition of a horseradish peroxidase(HRP)-conjugated anti-goat IgG donkey antibody for the dot-blot assay, and HRP-conjugated anti-goat Fc mouse antibody for ELISA assay (used at a 1:15,000 dilution in PBST and 1% BSA). Between reagents, the solid surfaces were washed extensively with PBST. After washing with PBST, the membrane was treated with a chemiluminescence luminol oxidizer (NEN) for 1 min. The resultant chemiluminescence was exposed to a X-Omat blue XB-1 film (Kodak) for 10 seconds, and the exposed film was developed. The ELISA was developed using an HRP ELISA kit including tetramethylbenzidine as a substrate and sulfuric acid as a stop solution. Optical absorbance values were read at 490 nm using a microplate reader.

Substance: Gly-Tyr(I2)-Ser-Thr-D-Gla-Val-Val-D-Ala-Leu-Ser-Arg-Leu [F2]
- reversal of leptin-induced cell stimulation (MCF-7 cells; 1 μM peptide): 15%
- Relative stimulation (%) of MCF-7 cells, With 10 nM leptin (MCF-7 cells; 1 μM peptide, with 10 nM leptin): −15%
- antagonistic activity on leptin-induced MCF-7 cell proliferation (MCF-7 cells): antagonists
- agonistic activity on MCF-7 cells (MCF-7 cells): agonists

Substance: Gly-Tyr(I2)-Ser-Thr-Glu-Val-Va1-βAla-Leu-Ser-Arg-Leu (G[Tyr(3,5-I2)]STEVV[βAla]LSRL-NH2) [A4]
- Relative stimulation (%) of MCF-7 cells, No leptin added (MCF-7 cells; 1 μM peptide): +102%

Substance: Leptin: Human leptin purchased from R&D Systems; full-length sequence SEQ ID NO:1
- stimulation of MCF-7 cell growth (MCF-7 cells; leptin at 10 nM): approximately 40%

Substance: SGYAAEVVALSRLQGS-NH2 [Site III Ala,Ala, Ser-Gly-Tyr-Ala-Ala-Glu-Val-Val-Ala-Leu-Ser-Arg-Leu-Gln-Gly-Ser]
- earliest time point at which peptide was detected in the bottom compartment [1]: 30 min

Substance: SGYSTEVVALSRLQGS [Site III 117-132]
- reduction in leptin-induced cell growth (MCF-7 cells; 1 μM peptide, in the presence of 10 nM leptin): 21%
- agonistic activity on MCF-7 cells (MCF-7 cells): did not noticeably influence the cell growth
- effect on the proliferation of DU-45 cells (DU-45 cells): no effect
- effect on the proliferation of MCF-10 cells (MCF-10 cells; listed as Site III peptide): did not demonstrate a major effect
- effect on the proliferation of MCF-10 cells (MCF-10 cells; listed as site III fragment): no effect

Substance: Tyr(I2)-Serβ(GlcAc4)-Thr-Glu-Val-Val-Ala-Leu-Ser-Arg-Leu-Dap(Ac) ([Tyr(3,5-I2)]S(βGlcAc4)TEVVALSRL[Dap](Ac)-NH2) [E1Ac]
- MCF-7 cell count increase (MCF-7 cells; 100 nM peptide): 54%
- further increase of leptin-induced cell stimulation (MCF-7 cells; 1000 nM peptide, in the presence of 6 nM leptin): 17%
- MCF-7 cell count increase (MCF-7 cells; 1000 nM peptide): 101%
- overall agonist character on cells expressing ObR (MCF-7 cells; in the presence and absence of leptin): full agonists
- binding to the extracellular domain of ObR (ObR extracellular domain): bound
- activity on MCF-10 normal mammary epithelial cells (MCF-10 cells; 100 nM and 1000 nM peptide): inactive

Substance: Tyr(Me)-Ser-Thr-D-Gla-Val-Val-D-Ala-Leu-Ser-Arg-Leu ([Tyr(Me)]ST[dGla]VV[dA]LSRL-NH2) [D12]
- reversal of leptin-induced cell stimulation (MCF-7 cells; 1 μM peptide): 43%
- antagonistic activity on leptin-induced MCF-7 cell proliferation (MCF-7 cells): antagonists
- agonistic activity on MCF-7 cells (MCF-7 cells): agonists

Substance: Tyr(Me)-Ser-Thr-Glu-Val-Val-βAla-Leu-Ser-Arg-Leu ([Tyr(Me)]STEVV[βAla]LSRL-NH2) [A11]
- Relative stimulation (%) of MCF-7 cells, No leptin added (MCF-7 cells; 1 μM peptide): +19%
- antagonistic activity on leptin-induced MCF-7 cell proliferation (MCF-7 cells): basically inactive

Substance: pyrrhocoricin: negative control antibacterial peptide with Pro-Arg-Pro repeats, equal in size with the leptin fragments (VDKGSYLPRPTPPRPIYNRN) [reference compound]
- binding to the extracellular domain of ObR (ObR extracellular domain): did not bind
